In the NIST ThermoML archive (doi:10.1016/j.jct.2018.01.025):
± gives the expanded uncertainty stated by the source.

Details: Liquid; for mass density: Vibrating tube method

CCCC[N+](C)(C)C.O=S(=O)([N-]S(=O)(=O)C(F)(F)F)C(F)(F)F [butyltrimethylammonium bis(trifluoromethylsulfonyl)imide]
Details | viscosity [mPa·s]
278.15 K, 101.33 kPa, Concentric cylinders viscometry | 360.1 ± 9.7
283.15 K, 101.33 kPa, Concentric cylinders viscometry | 253.8 ± 5.8
288.15 K, 101.33 kPa, Concentric cylinders viscometry | 184.7 ± 3.6
293.15 K, 101.33 kPa, Concentric cylinders viscometry | 138.3 ± 2.3
298.15 K, 101.33 kPa, Concentric cylinders viscometry | 105.4 ± 1.5
298.6 K, 101.33 kPa, Vibrating wire viscometry | 102.17 ± 1.9
301.53 K, 101.33 kPa, Vibrating wire viscometry | 87.01 ± 1.6
303.15 K, 101.33 kPa, Concentric cylinders viscometry | 82.19 ± 1
303.15 K, 10000 kPa, Falling or rolling sphere viscometry | 93.4 ± 3.8
303.15 K, 15000 kPa, Falling or rolling sphere viscometry | 99.9 ± 4.1
303.15 K, 25000 kPa, Falling or rolling sphere viscometry | 114 ± 5
303.15 K, 50000 kPa, Falling or rolling sphere viscometry | 158.2 ± 7.9
303.15 K, 75000 kPa, Falling or rolling sphere viscometry | 218.5 ± 13
303.15 K, 100000 kPa, Falling or rolling sphere viscometry | 300.8 ± 20
303.15 K, 125000 kPa, Falling or rolling sphere viscometry | 413.1 ± 31
303.15 K, 150000 kPa, Falling or rolling sphere viscometry | 566.6 ± 47
304.45 K, 101.33 kPa, Vibrating wire viscometry | 76.4 ± 1.3
307.33 K, 101.33 kPa, Vibrating wire viscometry | 66.1 ± 1.1
308.15 K, 101.33 kPa, Concentric cylinders viscometry | 65.33 ± 0.74
310.28 K, 101.33 kPa, Vibrating wire viscometry | 58.41 ± 0.92
313.15 K, 101.33 kPa, Concentric cylinders viscometry | 53.01 ± 0.57
313.15 K, 10000 kPa, Falling or rolling sphere viscometry | 59.7 ± 2.1
313.15 K, 15000 kPa, Falling or rolling sphere viscometry | 63.7 ± 2.3
313.15 K, 25000 kPa, Falling or rolling sphere viscometry | 72.4 ± 2.7
313.15 K, 50000 kPa, Falling or rolling sphere viscometry | 98.5 ± 4.1
313.15 K, 75000 kPa, Falling or rolling sphere viscometry | 132.2 ± 6.2
313.15 K, 100000 kPa, Falling or rolling sphere viscometry | 175.9 ± 9.3
313.15 K, 125000 kPa, Falling or rolling sphere viscometry | 232.5 ± 14
313.15 K, 150000 kPa, Falling or rolling sphere viscometry | 306 ± 20
313.34 K, 101.33 kPa, Vibrating wire viscometry | 50.51 ± 0.78
318.15 K, 101.33 kPa, Concentric cylinders viscometry | 43.22 ± 0.48
323.15 K, 101.33 kPa, Concentric cylinders viscometry | 35.9 ± 0.4
323.15 K, 10000 kPa, Falling or rolling sphere viscometry | 40.1 ± 1.5
323.15 K, 15000 kPa, Falling or rolling sphere viscometry | 42.6 ± 1.5
323.15 K, 25000 kPa, Falling or rolling sphere viscometry | 47.9 ± 1.7
323.15 K, 50000 kPa, Falling or rolling sphere viscometry | 63.5 ± 2.3
323.15 K, 75000 kPa, Falling or rolling sphere viscometry | 83.6 ± 3.3
323.15 K, 100000 kPa, Falling or rolling sphere viscometry | 109.1 ± 4.7
323.15 K, 125000 kPa, Falling or rolling sphere viscometry | 142 ± 6.8
323.15 K, 150000 kPa, Falling or rolling sphere viscometry | 183.4 ± 9.8
323.33 K, 101.33 kPa, Vibrating wire viscometry | 35.59 ± 0.57
328.15 K, 101.33 kPa, Concentric cylinders viscometry | 30.18 ± 0.34
328.27 K, 101.33 kPa, Vibrating wire viscometry | 29.72 ± 0.47
333.15 K, 101.33 kPa, Concentric cylinders viscometry | 25.64 ± 0.29
333.15 K, 10000 kPa, Falling or rolling sphere viscometry | 28.2 ± 1
333.15 K, 15000 kPa, Falling or rolling sphere viscometry | 29.8 ± 1.1
333.15 K, 25000 kPa, Falling or rolling sphere viscometry | 33.3 ± 1.2
333.15 K, 50000 kPa, Falling or rolling sphere viscometry | 43.4 ± 1.6
333.15 K, 75000 kPa, Falling or rolling sphere viscometry | 56.1 ± 2
333.15 K, 100000 kPa, Falling or rolling sphere viscometry | 71.9 ± 2.7
333.15 K, 125000 kPa, Falling or rolling sphere viscometry | 91.8 ± 3.7
333.15 K, 150000 kPa, Falling or rolling sphere viscometry | 116.8 ± 5.2
338.15 K, 101.33 kPa, Concentric cylinders viscometry | 22.02 ± 0.25
343.15 K, 101.33 kPa, Concentric cylinders viscometry | 19.08 ± 0.21
343.15 K, 10000 kPa, Falling or rolling sphere viscometry | 21 ± 0.8
343.15 K, 15000 kPa, Falling or rolling sphere viscometry | 22 ± 0.8
343.15 K, 25000 kPa, Falling or rolling sphere viscometry | 24.3 ± 0.9
343.15 K, 50000 kPa, Falling or rolling sphere viscometry | 31 ± 1.1
343.15 K, 75000 kPa, Falling or rolling sphere viscometry | 39.5 ± 1.4
343.15 K, 100000 kPa, Falling or rolling sphere viscometry | 50.3 ± 1.8
343.15 K, 125000 kPa, Falling or rolling sphere viscometry | 63.8 ± 2.3
343.15 K, 150000 kPa, Falling or rolling sphere viscometry | 81 ± 3.1
348.15 K, 101.33 kPa, Concentric cylinders viscometry | 16.65 ± 0.19
353.15 K, 101.33 kPa, Concentric cylinders viscometry | 14.74 ± 0.17
353.15 K, 10000 kPa, Falling or rolling sphere viscometry | 15.6 ± 0.6
353.15 K, 15000 kPa, Falling or rolling sphere viscometry | 16.5 ± 0.6
353.15 K, 25000 kPa, Falling or rolling sphere viscometry | 18.3 ± 0.7
353.15 K, 50000 kPa, Falling or rolling sphere viscometry | 23.4 ± 0.8
353.15 K, 75000 kPa, Falling or rolling sphere viscometry | 29.4 ± 1.1
353.15 K, 100000 kPa, Falling or rolling sphere viscometry | 36.6 ± 1.3
353.15 K, 125000 kPa, Falling or rolling sphere viscometry | 45.3 ± 1.6
353.15 K, 150000 kPa, Falling or rolling sphere viscometry | 55.7 ± 2
358.15 K, 101.33 kPa, Concentric cylinders viscometry | 12.99 ± 0.15
363.15 K, 101.33 kPa, Concentric cylinders viscometry | 11.58 ± 0.13
368.15 K, 101.33 kPa, Concentric cylinders viscometry | 10.38 ± 0.12
373.15 K, 101.33 kPa, Concentric cylinders viscometry | 9.36 ± 0.11

101.33 kPa
Details | mass density [kg/m3]
278.15 K | 1411.5 ± 2.3
283.15 K | 1406.6 ± 2.3
288.15 K | 1401.9 ± 2.3
293.15 K | 1397.2 ± 2.3
298.15 K | 1392.8 ± 2.3
303.15 K | 1388.4 ± 2.3
308.15 K | 1384 ± 2.3
313.15 K | 1379.7 ± 2.3
318.15 K | 1375.4 ± 2.3
323.15 K | 1371.1 ± 2.3
328.15 K | 1366.8 ± 2.3
333.15 K | 1362.6 ± 2.3
338.15 K | 1358.4 ± 2.3
343.15 K | 1354.2 ± 2.3
348.15 K | 1350 ± 2.3
353.15 K | 1345.7 ± 2.3
358.15 K | 1341.4 ± 2.3
363.15 K | 1336.8 ± 2.3
368.15 K | 1332.5 ± 2.3
373.15 K | 1328.4 ± 2.3
